Data from patent US20230108093A1, “METHODS FOR PREDICTING AND TREATING LAMENESS” (Novus International, Inc., priority 2021, published 2023).

Tested on: barrows
Assay: Fast growth study (Example 2): average daily growth, gait score, lameness incidence
Assay type: in vivo, pig
Settings: pigs fed RAC 10 ppm last 25 days, regardless of diet
Description: A study was conducted in 144 healthy barrows, in which serum biomarkers were measured over 69 days at day 0, day 28, and day 69. Fast growth was induced in some pigs as explained below.
The study was a 2×2 factorial study. The first factor was diet. Pigs were fed either inorganic trace minerals (ITM) or Mintrex° (MTX), an organic mineral. The ITM included a ratio of 120-20-40 ppm Zn—Cu—Mn. The MTX included a ratio of 80-10-20 ppm Zn—Cu—Mn.
The second factor was feeding ractopamine (RAC; a beta-adrenergic agonist) to induce fast growth. Pigs were fed ractopamine at either 0 ppm or 10 ppm during the last 25 days of the trial.

CC(CCc1ccc(O)cc1)NCC(O)c1ccc(O)cc1 (racemic) [RAC, ractopamine]
ADG (average daily growth): increased
